Patent US20100273770A1, “1, 2, 4 -OXADIAZOLE COMPOUNDS FOR THE TREATMENT OF AUTOIMMUNE DISEASES” (priority 2007, published 2010)
Counter-ions that a name gives are not always drawn.

Experiments:
human S1P3 receptor = biological target: T1, human S1P3 receptor (Homo sapiens, UniProt Q99500); assay: S1P3 GTPγS assay; type: biochemical; conditions: [35S]-GTPγS binding, S1P3 RBL-2H3 membranes, agonist; read-out: pEC50 (S1P3 GTPγS assay) (converted)
T1 construct: expressed in transfected cells; membranes
Experimental: (§1) For membrane preparations all steps were performed at 4° C. Rat hepatoma cells stably expressing the human S1P1 receptor or Rat Basophilic Leukaemia cells (RBL) stably expressing human S1P3 receptor were grown to 80% confluency before being harvested into 10 ml Phospho-Buffered Saline (PBS) and centrifuged at 1200 rpm for 5 minutes. After removal of the supernatant, the pellet was re-suspended and cells were homogenised within a glass Waring blender for 2 bursts of 15 secs in 200 mls of buffer (50 mM HEPES, 1 mM leupeptin, 25 μg/ml bacitracin, 1 mM EDTA, 1 mM PMSF, 2 μM pepstatin A). The blender was plunged into ice for 5 mins after the first burst and 10-40 mins after the final burst to allow foam to dissipate. The material was then spun at 500 g for 20 mins and the supernatant spun for 36 mins at 48,000 g. The pellet was resuspended in the same buffer as above but without PMSF and pepstatin A. The material was then forced through a 0.6 mm needle, made up to the required volume, (usually ×4 the volume of the original cell pellet), aliquoted and stored frozen at −80° C.
S1P3 membranes from rat basophilic leukaemia cells (RBL-2H3)(1.5 μg/well) were adhered to WGA-coated SPA beads (0.125 mg/well) in assay buffer (HEPES 20 mM, MgCl2 3 mM, NaCl 100 mM and pH adjusted to 7.4 using KOH 5M), GDP 10 μM FAC and saponin 90 μg/ml FAC was also added).
(§2) After 30 minutes pre-coupling on ice the bead and membrane suspension was dispensed into a white Greiner polypropylene LV384-well plate (5 μl/well), containing 0.1 μl of the compound. 5 μl/well [^35S]-GTPγS (0.5 nM final radioligand conc) made up in assay buffer was then added to agonist plates. The final assay cocktail (10.1 μl) was centrifuged at 1000 rpm for 5 minutes then read immediately on a Viewlux reader.
(§3) All test compounds were dissolved in DMSO at a concentration of 10 mM and were prepared in 100% DMSO using a 1 in 4 dilution step to provide 11 point dose response curves. The dilutions were transferred to the assay plates ensuring that the DMSO concentration was constant across the plate for all assays.
(§4) All data was normalized to the mean of 16 high and 16 low control wells on each plate. A four parameter curve fit was then applied.
(§5) S1P3 expressing RBL membranes (1.5 μg/well) were homogenised by passing through a 23G needle. These were then adhered to WGA-coated SPA beads (0.125 mg/well) in assay buffer (HEPES 20 mM, MgCl2 10 mM, NaCl 100 mM and pH adjusted to 7.4 using KOH 5M). GDP 10 μM FAC and saponin 90 μg/ml FAC were also added
(§6) After 30 minutes precoupling on ice, the bead and membrane suspension was dispensed into white Greiner polypropylene LV 384-well plates (5 μl/well), containing 0.1 μl of compound. 5 μl/well [^35S]-GTPγS (0.5 nM for S1P1 or 0.3 nM for S1P3 final radioligand concentration) made in assay buffer was then added to the plates. The final assay cocktail (10.1 μl) was then sealed, spun on a centrifuge, then read immediately on a Viewlux instrument.

human S1P1 receptor = biological target: T2, human S1P1 receptor (Homo sapiens, UniProt P21453); assay: S1P1 GTPγS assay; type: biochemical; conditions: [35S]-GTPγS binding, human S1P1 rat hepatoma (RH7777) membranes, agonist; read-out: pEC50 (S1P1 GTPγS assay) (converted)
T2 construct: expressed in transfected cells; membranes
Experimental: as §1
as §1, with “All” for “For membrane preparations all”, “Cells” for “Rat hepatoma cells stably expressing the human S1P1 receptor or Rat Basophilic Leukaemia cells (RBL) stably expressing human S1P3 receptor were grown to 80% confluency before being harvested into 10 ml Phospho-Buffered Saline (PBS) and centrifuged at 1200 rpm for 5 minutes. After removal of the supernatant, the pellet was re-suspended and cells”
Human S1P1 rat hepatoma membranes (1.5 μg/well) were adhered to a wheatgerm agglutinin (WGA)-coated scintillation proximity assay (SPA) beads (0.125 mg/well) in assay buffer (HEPES 20 mM, MgCl2 10 mM, NaCl 100 mM and pH adjusted to 7.4 using KOH 5M, GDP 10 μM FAC (final assay concentration) and saponin 90 μg/ml FAC was also added).
as §2, with “μl) was then centrifuged at” for “μl) was centrifuged at”
as §3, §4
as §5, with “S1P1” for “S1P3”, “RH7777 membranes (1.5 μg/well)” for “RBL”
as §6

[1] = clinical studies, first 24 hours of treatment; cited from earlier work
circulating lymphocytes = conditions: animals and man; cited from earlier work

T1 sequence (Q99500 whole entry): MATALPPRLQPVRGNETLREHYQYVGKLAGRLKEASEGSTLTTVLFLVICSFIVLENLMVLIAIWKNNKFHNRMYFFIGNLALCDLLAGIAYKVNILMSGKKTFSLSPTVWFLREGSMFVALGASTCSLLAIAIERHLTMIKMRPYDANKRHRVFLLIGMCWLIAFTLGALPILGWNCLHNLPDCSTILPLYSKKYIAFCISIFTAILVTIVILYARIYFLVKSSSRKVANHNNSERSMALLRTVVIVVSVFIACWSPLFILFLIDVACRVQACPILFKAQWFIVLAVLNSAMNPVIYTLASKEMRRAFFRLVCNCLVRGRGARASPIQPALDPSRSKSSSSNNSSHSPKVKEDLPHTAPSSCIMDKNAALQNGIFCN
T2 sequence (P21453 whole entry): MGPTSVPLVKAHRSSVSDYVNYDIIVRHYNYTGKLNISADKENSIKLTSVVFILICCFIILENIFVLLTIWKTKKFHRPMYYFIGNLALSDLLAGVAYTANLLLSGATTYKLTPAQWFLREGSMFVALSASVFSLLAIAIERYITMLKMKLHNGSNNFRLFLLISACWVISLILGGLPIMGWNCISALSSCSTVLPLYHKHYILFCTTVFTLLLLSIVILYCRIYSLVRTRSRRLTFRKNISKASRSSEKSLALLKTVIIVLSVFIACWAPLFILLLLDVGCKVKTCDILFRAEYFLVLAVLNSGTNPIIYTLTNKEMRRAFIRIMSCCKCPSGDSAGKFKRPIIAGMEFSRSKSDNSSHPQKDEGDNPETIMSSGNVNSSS

Row | EC50 (human S1P3 receptor) [µM] | EC50 (human S1P1 receptor) [µM] | SMILES | bradycardia on treatment [1] | effect on circulating lymphocytes (circulating lymphocytes)
1 | > 10 | < 0.1 | CC(C)Oc1ccc(-c2nc(-c3cccc4c3OCCNC4CC(=O)O)no2)cc1Cl (centres unmarked) [Example 7, [9-(5-{3-Chloro-4-[(1-methylethyl)oxy]phenyl}-1,2,4-oxadiazol-3-yl)-2,3,4,5-tetrahydro-1,4-benzoxazepin-5-yl]acetic acid hydrochloride] |  | 
2 | > 10 |  | CC(C)Oc1ccc(-c2nc(-c3cccc4c3OCCNC4CC(=O)O)no2)cc1C#N (centres unmarked) [Example 8, [9-(5-{3-cyano-4-[(1-methylethyl)oxy]phenyl}-1,2,4-oxadiazol-3-yl)-2,3,4,5-tetrahydro-1,4-benzoxazepin-5-yl]acetic acid] |  | 
3 | > 10 | < 0.1 | CC(C)Oc1ncc(-c2nc(-c3cccc4c3OCCNC4CC(=O)O)no2)cc1Cl (centres unmarked) [Example 9, [9-(5-{5-Chloro-6-[(1-methylethyl)oxy]-3-pyridinyl}-1,2,4-oxadiazol-3-yl)-2,3,4,5-tetrahydro-1,4-benzoxazepin-5-yl]acetic acid] |  | 
4 | > 10 | < 0.1 | CC(C)Oc1ccc(-c2nc(-c3cccc4c3OCCNC4CCCC(=O)O)no2)cc1C#N (centres unmarked) [Example 10, 4-[9-(5-{3-cyano-4-[(1-methylethyl)oxy]phenyl}-1,2,4-oxadiazol-3-yl)-2,3,4,5-tetrahydro-1,4-benzoxazepin-5-yl]butanoic acid hydrochloride salt] |  | 
5 |  | < 0.1 | CC(C)Oc1ncc(-c2nc(-c3cccc4c3OCCNC4CCCC(=O)O)no2)cc1Cl (centres unmarked) [Example 11, 4-[9-(5-{5-chloro-6-[(1-methylethyl)oxy]-3-pyridinyl}-1,2,4-oxadiazol-3-yl)-2,3,4,5-tetrahydro-1,4-benzoxazepin-5-yl]butanoic acid hydrochloride] |  | 
6 | > 10 | < 0.01 | CC(C)Oc1ccc(-c2nc(-c3cccc4c3OCCNC4CCCC(=O)O)no2)cc1Cl (centres unmarked) [Example 12, 4-[9-(5-{3-chloro-4-[(1-methylethyl)oxy]phenyl}-1,2,4-oxadiazol-3-yl)-2,3,4,5-tetrahydro-1,4-benzoxazepin-5-yl]butanoic acid hydrochloride] |  | 
7 | > 10 | < 0.01 | CC(C)Oc1ccc(-c2nc(-c3cccc4c3OCCNC4CCC(=O)O)no2)cc1Cl (centres unmarked) [Example 13, 3-[9-(5-{3-Chloro-4-[(1-methylethyl)oxy]phenyl}-1,2,4-oxadiazol-3-yl)-2,3,4,5-tetrahydro-1,4-benzoxazepin-5-yl]propanoic acid, formic acid salt] |  | 
8 |  | < 0.01 | CC(C)Oc1ccc(-c2nc(-c3cccc4c3OCCNC4CCC(=O)O)no2)cc1C#N (centres unmarked) [Example 14, 3-[9-(5-{3-cyano-4-[(1-methylethyl)oxy]phenyl}-1,2,4-oxadiazol-3-yl)-2,3,4,5-tetrahydro-1,4-benzoxazepin-5-yl]propanoic acid, formic acid salt] |  | 

More lines, now with the values behind:

Row | SMILES | EC50 (human S1P3 receptor) [µM] | EC50 (human S1P1 receptor) [µM] | bradycardia on treatment [1] | effect on circulating lymphocytes (circulating lymphocytes)
9 | CC(C)Oc1ccc(-c2nc(-c3ccc4c(c3)CCCNC4CCC(N)=O)no2)cc1Cl (centres unmarked) [Example 1, 3-[7-(5-{3-chloro-4-[(1-methylethyl)oxy]phenyl}-1,2,4-oxadiazol-3-yl)-2,3,4,5-tetrahydro-1H-2-benzazepin-1-yl]propanamide] | > 10 |  |  | 
10 | CC(C)Oc1ccc(-c2nc(-c3ccc4c(c3)CCCNC4CCC(=O)O)no2)cc1Cl (centres unmarked) [Example 2, 3-[7-(5-{3-Chloro-4-[(1-methylethyl)oxy]phenyl}-1,2,4-oxadiazol-3-yl)-2,3,4,5-tetrahydro-1H-2-benzazepin-1-yl]propanoic acid hydrochloride] | > 10 |  |  | 
11 | CC(C)Oc1ccc(-c2nc(-c3ccc4c(c3)CCCNC4CCCO)no2)cc1Cl (centres unmarked) [Example 3, 3-[7-(5-{3-Chloro-4-[(1-methylethyl)oxy]phenyl}-1,2,4-oxadiazol-3-yl)-2,3,4,5-tetrahydro-1H-2-benzazepin-1-yl]-1-propanol hydrochloride] | > 10 |  |  | 
12 | CC(C)Oc1ccc(-c2nc(-c3ccc4c(c3)CNC(C(=O)O)CO4)no2)cc1Cl (centres unmarked) [Example 5, 7-(5-{3-Chloro-4-[(1-methylethyl)oxy]phenyl}-1,2,4-oxadiazol-3-yl)-2,3,4,5-tetrahydro-1,4-benzoxazepine-3-carboxylic acid hydrochloride] |  | < 0.1 |  | 
13 | CC(C)Oc1ccc(-c2nc(-c3ccc4c(c3)CNC(CCC(=O)O)CO4)no2)cc1Cl (centres unmarked) [Example 6, 3-[7-(5-{3-Chloro-4-[(1-methylethyl)oxy]phenyl}-1,2,4-oxadiazol-3-yl)-2,3,4,5-tetrahydro-1,4-benzoxazepin-3-yl]propanoic acid hydrochloride] |  | < 0.01 |  | 
14 | CCCCCCCCc1ccc(CCC(N)(CO)CO)cc1 [FTY720] |  |  | bradycardia in the first 24 hours of treatment | reduce circulating lymphocytes
